Read-outs that look alike come from different tables or passages of the source.
Key:
stem cells = assay: stimulation of cellular proliferation, 3H thymidine incorporation of stem cells; type: cell-based; conditions: loop peptides of human TGFα; compared to TGF-α 50 aa and 57 aa polypeptide; FIG. 2
Source text: Each of the three loop regions in human TGFα was investigated for TGFα-like biological activity, such as stimulation of cellular proliferation as measured by ^3H thymidine incorporation of stem cells. […] Accordingly, data from TGFα or TGF-α57 show what can be called “TGF-α activity” and that these are predictive of activity of the functional TGF-α peptide and similar functional TGF-α peptides embodied in the genus of formula I with or without the addition of a “tail” region of formula II.

[1] = test system: human CD34 positive and CD38 negative cells; assay: liquid primary culture of human bone-marrow enriched CD34 cells; type: cell-based; conditions: positive control, 500 ng/ml
Description: An additional experiment investigated TGF-α activity (using TGF-α57) on human bone-marrow enriched CD34 cells. FACS-sorted human CD34 positive and CD38 negative cells were cultured in liquid primary cultures in Iscove's modified Dulbecco's media with supplements. […] Stem Cell Factor (SCF) was used as a positive control (500 ng/ml) and provided a three-fold increase in CD34 positive cells. When a combination of SCF (500 ng/ml) and TGFα (10 ng/ml) was added, a synergistic 12-fold increase in CD34 positive cells was observed.

mouse intestines = assay: histological examination of intestines of CP-treated mice; type: in vivo; conditions: CP treatment; 50 μg/kg; FIG. 4
Description: The experiment procedure dosed those animals to be treated with TGFα 57 4 hours prior to challenge with CP. A single dose of CP was administered. Additional doses (as indicated) of TGFα 57 were made at 24 hours, 48 hours, 72 hours and 96 hours after the CP dose. All doses were made by IP injection. Controls were dosed with saline instead of either or both of CP and TGF-α57.
The animals were sacrificed about 4 hours after the last TGF-α57 (or saline) dose. Key organs were removed and spleens were immediately weighed after a clean incision. All the relevant organs were placed in formalin, transported for histopathological analysis, mounted, sectioned, stained and observed. The results of this histological analysis of the spleens for hematopoietic effect and the GI tract (below) provided surprising and unexpected data of the effect of TGF-α57 activity.
TGFα or a peptide from formula I, formula II, formula III, formula IV, formula V, or formula VI having TGFα activity or combinations thereof are also useful for treating mucositis associated intestinal bleeding, dyspepsia caused by with cytotoxic therapy and for improving the barrier function of the GI tract compromised by cytotoxic therapy. The in vivo experiment with seven groups of mice described above for hematopoietic effects noted in spleens also examined the GI tract of these treated mice. […] A single row of intestinal crypt is found at the base of the mucosa. These crypts that lie between adjacent villi are surrounded by the same lamina propria that form the villous cores. Both columnar absorptive cells and goblet cells cover the villous surfaces. The goblet cells contain apical clear vacuoles. […] Specifically, the villus was long and slender. Both absorptive cells and goblet cells were visible at the surface of the villi, and there was an abundant amount of goblet cells on the surface.
A 160×magnification of the intestines of a CP-treated mouse, a normal mouse and a CP treated and TGFα57 treated mouse at the same doses as described above. […] The crypts were irregularly shaped and in had various heights. […] The crypts also appeared normal.
Red cells were visible at the damaged surface indicating intestinal bleeding. […] Globlet cells appeared interspersed, necrotic and fewer in number than normal. […] Specifically, the epithelial cells appeared normal with extended brush borders. The nuclei were very densely stained and elongated.
The histological data is summarized in FIG. 4 that measured average crypt height of the three groups of mice.
An alcian blue staining method permitted differentiation of absorptive cells and goblet cells. Goblet cell mucus is stained a blue color while the absorptive cells remain less stained. […] In the normal intestine each villus extended from the luminal surface to the basal muscularis mucosal surface. Goblet cells were scattered and predominated in the base of the villus whereas columnar absorptive cells lined the luminal surface. […] The injured absorptive and goblet cells were degenerating at the tip of the villi and abundant secretory mucus material was stained in the luminal surface. In the CP/TGF-α mouse, there were an increased number of goblet cells scattered throughout the villi. The intestinal villi appeared normal with elongation. […] The luminal plasma membranes of the villi were well protected by TGF-α treatment. The number of goblet cells was counted on the average unit length of intestine.

[2] = test system: immune cells (T cell lineage), mast cells; assay: immune cells, mast cells and cytokines in vivo after CP; set-up: species or system mice; conditions: in vivo
Source text: The stimulated immune cells were phenotypically identified as CD4 positive T cells and double null CD4 negative CD8 negative T cell progenitors. […] The in vivo activity of TGFα (and the functional peptides of formula I, formula II, formula III, and formula IV) to stimulate early T cell progenitors in the release of TH-1 and TH-2 cytokines and this regulation of immune phenomena. The stimulation of select immune cells, in particular cells of a T cell lineage, was seen consistently in the mice who received CP and TGF-α57 in lymphoid tissue, Peyers Patches and the spleen. Further, recruitment of help via CD4 cells in some cases boosts immune system function in general.
This is a parallel activity that is in addition to the gastrointestinal anti-inflammatory activity and prevention of mucositis of TGFα (and the functional peptides of formula I, formula II, formula III, and […]) described herein.

[3] = test system: chronic inflammatory-like gastrointestinal symptoms; type: in vivo, non-human primate; set-up: wt.: unit not given here; conditions: for wt.: non-human primate, 300 μg/kg ip once, then 50 μg/kg S.C. 6 days
Description: (§1) In addition, studies of TGF-α for the treatment of diarrhea in non-human primates was also performed. […] This weight gain was maintained at least for several weeks post treatment. In addition, the reduction of SEGs (see column 6, Table 1) neutrophils correlates with reduction in inflammation associated with neutrophil influx and concomitant pro-inflammatory cytokines.

[4] = type: in vivo; conditions: non-human primate, 300 μg/kg ip once, then 50 μg/kg S.C. 6 days
Description: as §1

[5] = cited from earlier work
[6] = test system: EGF receptor family (e.g., ErbB1 through 4); conditions: background statement; cited from earlier work
[7] = acid and heat; background statement; cited from earlier work

Loop A: loop peptide region of TGFα, amino acids 1-21 starting at the N terminus (VVSHFNDCPDSHTQFCFHGTC)
TGF-α biological activity (stimulation of cellular proliferation) (stem cells): Only Loop C showed significant TGF-α activity

Loop B: loop peptide region of TGFα, amino acids 16 to 32 (CFHGTCRFLVQEDKPAC)
TGF-α biological activity (stimulation of cellular proliferation) (stem cells): Only Loop C showed significant TGF-α activity

Loop C: loop peptide region of TGFα, amino acids 33 to 50; TGF-α mimetic peptide (VCHSGYVGARCEHADLLA)
TGF-α biological activity (stimulation of cellular proliferation) (stem cells): significant TGF-α biological activity

SCF: Stem Cell Factor, used as a positive control [reference compound]
increase in CD34 positive cells [1]: three-fold

TGF-α: human transforming growth factor alpha, 50 amino acid polypeptide with three disulfide bonds, SEQ ID NO:1
average crypt height (mouse intestines): more-than-restore crypt height loss
IL-6 and MIP [2]: downregulating IL-6 and MIP
TNF-α receptors [2]: downregulating TNF-α receptors
mast cell degranulation and histamine release [2]: prevented mast cell degranulation and subsequent histamine release
neutrophil trafficking [2]: blocking neutrophil trafficking
stool consistency ([3]; 300 μg/kg intraperitoneally once, then 50 μg/kg S.C. for 6 days): steady increase in stool consistency
wt. ([3]; Time 1): 5.80
wt. ([3]; Time 2): 6.33
wt. ([3]; Time 3): 6.74
wt. ([3]; Time 4): 8.21
wt. ([3]; Time 5): 8.93
wt. ([3]; Time 6): 9.42
weight ([3]; through the treatment period, 300 μg/kg intraperitoneally once, then 50 μg/kg S.C. for 6 days): steady weight gain
CD4^+ ([4]; Time 1): 28.4%
CD8^+ ([4]; Time 1): 56.3%
Dual CD8^+ CD4^+ ([4]; Time 1): 6.7%
Seg ([4]; Time 1): 76%
Seg ([4]; Time 2): 69%
CD4^+ ([4]; Time 3): 36.7%
CD8^+ ([4]; Time 3): 53.1%
Dual CD8^+ CD4^+ ([4]; Time 3): 6.3%
Seg ([4]; Time 3): 61%
CD4^+ ([4]; Time 4): 31.3%
CD8^+ ([4]; Time 4): 54.0%
Dual CD8^+ CD4^+ ([4]; Time 4): 9.1%
Seg ([4]; Time 4): 48%
CD4^+ ([4]; Time 5): 33.4%
CD8^+ ([4]; Time 5): 49.8%
Dual CD8^+ CD4^+ ([4]; Time 5): 8.1%
Seg ([4]; Time 5): 46%
CD4^+ ([4]; Time 6): 35.1%
CD8^+ ([4]; Time 6): 50.3%
Dual CD8^+ CD4^+ ([4]; Time 6): 7.7%
Seg ([4]; Time 6): 56%
estimated pKa of the lysine 29 ε amino [5]: 10.4
binding affinity [6]: high affinity in the nanomolar range
stability [7]: acid and heat stable
